The values below come from publication PMC12249582, “Ruxolitinib Modulates P-Glycoprotein Function, Delays T Cell Activation, and Impairs CCL19 Chemokine-Directed Migration in Human Cytotoxic T Lymphocytes” (International Journal of Molecular Sciences, 2025).

Each structure is given as a SMILES string.

The test concerns the target T1, P-glycoprotein (Pgp/ABCB1) (Homo sapiens, UniProt P08183).
T1 construct: human Pgp stably expressed in NIH-3T3 MDR1 cells (cells and raw membrane preparations)
Kind of test: calcein-AM efflux inhibition in NIH-3T3 MDR1 cells (IC50); vanadate-sensitive ATPase stimulation in Pgp membranes. Format: cell-based.

T1 sequence (P08183 whole entry): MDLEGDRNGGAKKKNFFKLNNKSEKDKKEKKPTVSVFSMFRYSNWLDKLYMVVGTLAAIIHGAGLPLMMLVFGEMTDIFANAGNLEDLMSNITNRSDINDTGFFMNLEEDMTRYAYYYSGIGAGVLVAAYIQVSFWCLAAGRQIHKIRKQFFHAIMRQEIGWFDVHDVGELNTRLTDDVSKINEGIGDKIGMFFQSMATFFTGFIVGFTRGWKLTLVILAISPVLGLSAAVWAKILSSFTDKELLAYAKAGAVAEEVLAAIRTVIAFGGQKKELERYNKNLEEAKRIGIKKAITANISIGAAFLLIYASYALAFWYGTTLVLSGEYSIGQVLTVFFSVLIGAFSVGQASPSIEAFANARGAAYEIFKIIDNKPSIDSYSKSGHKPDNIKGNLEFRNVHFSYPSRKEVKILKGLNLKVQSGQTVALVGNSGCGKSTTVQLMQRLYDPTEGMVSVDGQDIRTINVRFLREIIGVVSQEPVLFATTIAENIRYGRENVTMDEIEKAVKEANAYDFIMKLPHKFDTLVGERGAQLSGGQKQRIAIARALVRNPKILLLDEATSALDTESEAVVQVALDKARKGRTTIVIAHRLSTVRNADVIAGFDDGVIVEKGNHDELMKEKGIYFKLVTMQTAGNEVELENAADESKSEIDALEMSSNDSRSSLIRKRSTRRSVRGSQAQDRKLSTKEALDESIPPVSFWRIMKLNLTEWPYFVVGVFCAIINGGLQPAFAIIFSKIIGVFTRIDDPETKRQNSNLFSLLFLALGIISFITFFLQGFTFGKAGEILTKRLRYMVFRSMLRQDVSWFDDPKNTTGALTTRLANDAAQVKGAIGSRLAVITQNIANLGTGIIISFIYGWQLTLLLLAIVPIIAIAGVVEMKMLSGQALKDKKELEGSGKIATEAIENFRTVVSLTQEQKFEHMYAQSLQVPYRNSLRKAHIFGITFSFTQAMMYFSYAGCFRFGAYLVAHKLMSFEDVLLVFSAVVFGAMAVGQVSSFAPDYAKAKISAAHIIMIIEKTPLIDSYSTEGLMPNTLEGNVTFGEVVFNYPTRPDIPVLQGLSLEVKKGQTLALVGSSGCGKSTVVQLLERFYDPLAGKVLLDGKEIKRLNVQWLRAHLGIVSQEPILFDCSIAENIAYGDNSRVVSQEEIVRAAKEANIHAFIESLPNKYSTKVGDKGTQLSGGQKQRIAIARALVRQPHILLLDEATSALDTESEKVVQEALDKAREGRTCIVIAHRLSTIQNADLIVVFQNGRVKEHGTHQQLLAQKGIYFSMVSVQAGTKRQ

Turning to `N#CC[C@H](C1CCCC1)n1cc(-c2ncnc3[nH]ccc23)cn1` [RUX, ruxolitinib], the IC50 was around 13 µM.

What is called IC50 is the midpoint of a concentration-inhibition curve.
